Measurements taken from PubChem BioAssay (NCI).
Where “and” joins values, the source holds several entries; their conditions need not be identical. Identical values can stand only once.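 Method: 48-hour compound exposure of cells in 96-well plates, five concentrations, linear interpolation of endpoints. GI50 marks 50% less growth. TGI: total growth inhibition.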

How the values were obtained:
Assay in all cases: NCI anticancer screen, dose series, 48 h
OVCAR-8 ovarian = test system: OVCAR-8 ovarian
SK-MEL-5 melanoma = test system: SK-MEL-5 melanoma
IGROV1 ovarian = test system: IGROV1 ovarian
SK-MEL-2 melanoma = test system: SK-MEL-2 melanoma
A498 renal = test system: A498 renal
UACC-62 melanoma = test system: UACC-62 melanoma
NCI/ADR-RES ovarian = test system: NCI/ADR-RES ovarian
NCI-H522 lung = test system: NCI-H522 lung
OVCAR-4 ovarian = test system: OVCAR-4 ovarian
PC-3 prostate = test system: PC-3 prostate

| Structure (SMILES) | GI50 (OVCAR-8 ovarian) | TGI (OVCAR-8 ovarian) | GI50 (SK-MEL-5 melanoma) | TGI (SK-MEL-5 melanoma) | GI50 (IGROV1 ovarian) | TGI (IGROV1 ovarian) | GI50 (SK-MEL-2 melanoma) | TGI (SK-MEL-2 melanoma) | GI50 (A498 renal) | TGI (A498 renal) | GI50 (UACC-62 melanoma) | TGI (UACC-62 melanoma) | GI50 (NCI/ADR-RES ovarian) | TGI (NCI/ADR-RES ovarian) | GI50 (NCI-H522 lung) | TGI (NCI-H522 lung) | GI50 (OVCAR-4 ovarian) | TGI (OVCAR-4 ovarian) | GI50 (PC-3 prostate) | TGI (PC-3 prostate) |
| --- | --- | --- | --- | --- | --- | --- | --- | --- | --- | --- | --- | --- | --- | --- | --- | --- | --- | --- | --- | --- |
| COc1ccc(C#Cc2ccccc2C#CCCCCO)cc1 | 18.1 µM | 38.6 µM | 25.2 µM | 57.6 µM | 18.8 µM | 34.1 µM | 19.8 µM | 38.9 µM | 24.1 µM | 66.4 µM | 15.9 µM | 29.8 µM | 24.4 µM | 48.4 µM | 18.6 µM | 34.9 µM | 11.2 µM | 28.1 µM | 21.9 µM | 42.6 µM |
| COC(=O)[C@@H](NC(=O)NC(=O)NC(=O)CI)C(C)C | 18.8 µM | 41.4 µM | 17.4 µM | 31.6 µM | 3.87 µM | 13.9 µM | 18.9 µM | 36.5 µM | 16.7 µM | 30.9 µM | 14.4 µM | 29.9 µM | 25.4 µM | 73 µM | 1.69 µM | 3.31 µM | 3.19 µM | 13.7 µM | 16.3 µM | 30.7 µM |
| CN1C(=O)c2c(ccc3c2OCO3)C2C(O)Cc3cc4c(cc3C21)OCO4 (configuration not stated) | – | 22.9 µM | – | > 100 µM | – | 8.85 µM | – | 8.44 µM | – | 9.29 µM | – | > 100 µM | – | 8.28 µM | – | 9.28 µM | – | > 100 µM | – | > 100 µM |
| CN1CCN(c2ccc(C(=O)Nc3n[nH]c4ccc(Cc5cc(F)cc(F)c5)cc34)c(NC3CCOCC3)c2)CC1 | 1.73 µM | > 10 µM and 3.48 µM | 1.62 µM and 1.56 µM | 3.01 µM and 2.98 µM | 0.641 µM and 1.3 µM | 3 µM and 2.72 µM | 4.5 µM and 1.86 µM | > 10 µM and 3.53 µM | 1.77 µM and 0.846 µM | 6.85 µM and 2.24 µM | 1.52 µM and 1.6 µM | 3.03 µM and 3.1 µM | 4.81 µM and 2.02 µM | > 10 µM and 4.54 µM | 1.6 µM and 1.7 µM | 3.36 µM and 3.24 µM | 6.95 µM and 1.45 µM | > 10 µM and 4.09 µM | 2.83 µM and 1.38 µM | > 10 µM and 2.99 µM |
| O=C(c1ccccc1)c1c(NCC(O)CN2CCCC2)n(Cc2ccccc2)c(=O)n(Cc2ccccc2)c1=O (configuration not stated) | 18.5 µM | 36.2 µM | 12.5 µM | 25 µM | 21.6 µM | 52.8 µM | 20.5 µM | 39 µM | 2.3 µM | 12.7 µM | 17.4 µM | 33.2 µM | 19.5 µM | 55.3 µM | 19.8 µM | 35.6 µM | 23.9 µM | 57.1 µM | 17.5 µM | 36.6 µM |
| Cc1[nH]ncc1-c1cc2nc(C3CC4CCN3CC4)[nH]c(=O)c2s1 (configuration not stated) | 3.2 µM | > 100 µM | 2.77 µM | 52.9 µM | 3.47 µM | > 100 µM | 8.8 µM | 29.5 µM | 1.98 µM | 8.72 µM | 3.28 µM | 17.6 µM | 11.8 µM | > 100 µM | 2.75 µM | 39.4 µM | 9.68 µM | > 100 µM | 4.13 µM | > 100 µM |
| O=[N+]([O-])c1ccc(Nc2ccccc2-c2ccccc2)c2nonc12 | 21.1 µM | 75.9 µM | 6 µM | 18.8 µM | 12 µM | > 63.6 µM | 6.16 µM | 20.3 µM | 14.8 µM | 41.6 µM | 4.44 µM | 18 µM | 13.6 µM | 34.7 µM | 11.6 µM | 37.5 µM | 9.5 µM | > 100 µM | 13.6 µM | 66.2 µM |
| Nc1ccn(C2OC(CO)C(O)C2F)c(=O)n1 (configuration not stated) | 57.1 µM | – | > 5000 µM | > 5000 µM | > 5000 µM | > 5000 µM | > 5000 µM | > 5000 µM | > 5000 µM | > 5000 µM | > 5000 µM | > 5000 µM | – | > 5000 µM | 3990 µM | > 5000 µM | > 5000 µM | > 5000 µM | > 5000 µM | > 5000 µM |
| Cc1c2cc[nH]c(=O)c2c(C)c2c1[nH]c1cc(OCCN3CCN(C)CC3)ccc12 | 0.457 µM | 6.08 µM | 1.18 µM | 2.44 µM | 0.799 µM | 7.59 µM | 1.52 µM | 3.43 µM | 1.3 µM | 2.94 µM | 1.13 µM | 2.9 µM | 3.37 µM | 16.3 µM | 0.718 µM | 2.76 µM | 1.17 µM | 4.82 µM | 1.03 µM | 7.48 µM |
| COc1cccc2c1C(=O)c1c(O)c3c(c(O)c1C2=O)CC(O)(C(C)=O)CC3OC1CC(N)C(O)C(C)O1 (configuration not stated) | 0.0205 µg/mL | 0.393 µg/mL | 0.0193 µg/mL | 0.0525 µg/mL | – | 1.68 µg/mL | 0.102 µg/mL | 0.403 µg/mL | 0.0558 µg/mL | 0.39 µg/mL | 0.0157 µg/mL | 0.0734 µg/mL | 3.52 µg/mL | 25 µg/mL | 0.0317 µg/mL | 0.287 µg/mL | 0.0742 µg/mL | 0.692 µg/mL | 0.0336 µg/mL | 0.545 µg/mL |
| Cc1ccc(NCCCN2CCN(CCCNc3ccc(C)c4sc5ccccc5c(=O)c34)CC2)c2c(=O)c3ccccc3sc12 | – | > 100 µM | – | > 100 µM | – | > 100 µM | – | 93.8 µM | – | > 100 µM | – | > 100 µM | – | > 100 µM | – | > 100 µM | – | > 100 µM | – | > 100 µM |
